In one series the target is Cannabinoid receptor 1 (Homo sapiens, UniProt P21554). The experiment in a line: Inverse agonist activity at human CB1 receptor expressed in HEK293 cells assessed as forskolin-stimulated cAMP accumulation after 30 mins by HTRF assay. It counts as functional, cell-based.
The test system of a further series is Mus musculus. In words: In vivo inverse agonist activity at CB1 receptor in C57 mouse assessed as reduction in CP55940-induced inhibition of upper gastrointestinal motility at 10 mg/kg, po after 2 hrs. It is filed as functional, organism-based.
The species entered for another series is Homo sapiens. In words: Selectivity index, ratio of EC50 for human CB2 receptor expressed in HEK293 cells to EC50 for human CB1 receptor expressed in HEK293 cells. It is filed as cell-based.
Series [1] can be described thus: Ratio of drug level in brain to plasma in C57BL/6J mouse at 20 mg/kg, po measured after 1 hr. It is filed as ADME, organism-based. As to conditions: brain and plasma.
Series [2] is described as follows: Ratio of drug level in brain to plasma in C57BL/6J mouse at 20 mg/kg, po measured after 4 hr. As to conditions: brain and plasma. It counts as ADME, organism-based.

We go through three molecules from ChEMBL document CHEMBL4665918, “Discovery of PEGylated 6-Benzhydryl-4-amino-quinazolines as Peripherally Restricted CBR Inverse Agonists” (ACS Med Chem Lett, 2020).

As a reminder, the EC50 is the concentration that produces a half-maximal response. As usually defined, the Kp is tissue or fluid exposure divided by exposure in the circulation.

The structures appear in SMILES notation. The source made the active and inactive calls. The calls are words filed in the database; no cut-off is given here.

Cannabinoid receptor 1, sequence (P21554 whole entry): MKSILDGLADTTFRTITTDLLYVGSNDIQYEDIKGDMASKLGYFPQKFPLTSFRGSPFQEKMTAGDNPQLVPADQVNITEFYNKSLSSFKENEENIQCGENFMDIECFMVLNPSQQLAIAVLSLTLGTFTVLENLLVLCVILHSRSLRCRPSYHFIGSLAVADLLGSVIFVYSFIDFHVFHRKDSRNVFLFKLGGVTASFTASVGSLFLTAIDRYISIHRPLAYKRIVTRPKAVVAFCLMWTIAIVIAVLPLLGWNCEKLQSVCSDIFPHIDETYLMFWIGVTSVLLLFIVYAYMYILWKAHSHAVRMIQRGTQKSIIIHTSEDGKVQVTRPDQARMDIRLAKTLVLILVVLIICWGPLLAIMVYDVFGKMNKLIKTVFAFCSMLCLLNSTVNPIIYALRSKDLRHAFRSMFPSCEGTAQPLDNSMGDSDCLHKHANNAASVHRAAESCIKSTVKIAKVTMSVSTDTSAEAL

As for `O=C(NC(CO)(CO)CO)c1ccc(S(=O)(=O)N2CCC(Nc3ncnc4ccc(C(c5ccc(Cl)cc5)c5ccc(Cl)cc5)cc34)CC2)cc1`, the EC50 on Cannabinoid receptor 1 stood at 7.8 nM.
Regarding `Cc1c(C(=O)NN2CCCCC2)nn(-c2ccc(Cl)cc2Cl)c1-c1ccc(Cl)cc1`, in the series with Mus musculus, the outcome was Active.
For `O=S(=O)(N1CCC(Nc2ncnc3ccc(C(c4ccc(Cl)cc4)c4ccc(Cl)cc4)cc23)CC1)C(F)(F)F`, the EC50 at Cannabinoid receptor 1 is 4.6 nM. Moreover, the Ratio EC50 in the series filed under Homo sapiens came to 170. The Kp at 1 h turned out to be 0.02 in series [1] and 0.08 in series [2].
